Data on ten compounds can be found in patent US20260102460A1, “NOVEL COMBINATIONS OF ANTIBIOTICS AND NON-ANTIBIOTIC DRUGS EFFECTIVE IN VIVO AGAINST GRAM-POSITIVE BACTERIA, IN PARTICULAR METHICILLIN-RESISTANT S. AUREUS (MRSA)” (EUROPEAN MOLECULAR BIOLOGY LABORATORY, priority 2022, published 2026).

Entries after “also recorded” stand apart in the source; their conditions may differ.

For one assay, the system named is S. aureus (two strains). The assay can be described thus: High-throughput screen of drug combinations (4×4 broth microdilution checkerboard, Bliss scores). It counts as cell-based, Staphylococcus aureus. The following applies: for drug-drug interaction (synergy / antagonism, Bliss model): S. aureus Newman and DSM 20231, fitness from OD595nm at 8 h, synergy = first quartile of Bliss scores <−0.1, antagonism = third quartile >0.1, FDR <0.05. The protocol: (§1) MICs were tested in all strains for the main screen. Drugs were two-fold serially diluted in 11 concentrations, and 32 no-drug control wells were included in each plate. Experiments were conducted in 384-well plates (ref. 781271 by Greiner BioOne), with a total volume of 30 μl for S. aureus and B. subtilis and 55 μl for S. pneumoniae. Volumes were optimized for each strain to achieve good dynamic range for growth and minimize risk of cross-contamination between wells. Plates were inoculated with a starting optical density at 595 nm (OD595 nm) of 0.01 from an overnight culture. All liquid handling was performed using a Biomek FX liquid handler (Beckman Coulter). Plates were sealed with breathable membranes and incubated at 37° C. OD595 nm was measured every 30 minutes for 14 hours. The MIC was considered as the first concentration at which growth was inhibited. Experiments were conducted in biological duplicates. For the adjuvant screen, antibiotics were tested in S. aureus DSM 20231 at the same concentrations as for the main screen. Non-antibiotics concentrations were selected to fall within therapeutic ranges.
(§2) 62 drugs, hereafter designated as recipients, were arrayed in 384-well plates (ref. 781271 by Greiner BioOne) in three two-fold serial dilutions and two technical replicates. Concentrations were selected according to MICs, with the highest concentration corresponding to the MIC, and the intermediate and lowest concentration corresponding to ½ and ¼ MIC, respectively. Plates were kept frozen and defrosted upon each experimental run, when the same 62 drugs and in the same three concentrations were added as donor drugs (one drug at one concentration for each recipient plate). A few drugs were screened only as donors: the combinations co-amoxiclav and cotrimoxazole in B. subtilis and S. aureus DSM 20231; co-amoxiclav, clavulanic acid, pseudomonic acid and cefuroxime in S. aureus Newman. All donor drugs were tested in two biological replicates. Control wells were included in each plate (six no-drug wells, three plain medium wells and three wells containing only the donor drug). After the addition of donor drugs, plates were inoculated with cells. Handling, inoculation, growth conditions, plate incubation and OD595 nm measurements were performed as for the MIC determination.

In assay [1] the test system is multi-drug resistant E. coli isolates. The following applies: vanillin paired with spectinomycin; Gram-negative pathogenic and multi-drug resistant E. coli isolates; cited from earlier work.
Assay [2] concerns S. aureus Newman dltABCD and tagG IPTG-inducible knockdown mutants. In words: Gentamicin and nisin MIC in dltABCD and tagG knockdown mutants. The following applies: dltABCD operon and tagG knockdown, 500 μM IPTG, versus control strain MM76. It counts as cell-based, Staphylococcus aureus. From the text:
A two-plasmid CRISPR interference system was used to knock down gene expression of selected genes in S. aureus Newman. In these strains, dcas is expressed from an IPTG-inducible promoter on plasmid pLOW, while sgRNAs are expressed from a constitute promoter on a plasmid derived from pCG248. The sgRNA-target sequences were […] (SEQ ID NO. 1) for dltABCD and […] (SEQ ID NO. 2) for tagG, and […] (SEQ ID NO. 3) for the non-target control MM76.
For gentamicin and nisin MIC measurements, dltABCD and tagG IPTG-inducible knockdown mutants (Methods) were grown in two-fold dilutions of nisin and gentamicin, in presence of erythromycin (5 μg/ml) and chloramphenicol (10 μg/ml) for plasmid maintenance. IPTG (500 μM) was used to achieve maximal knockdown of the gene targeted. The parent S. aureus Newman and the control strain MM76 (Methods) were included in all experiments, and experiments were conducted in four biological replicates, in 384-well plates (ref. 781271 by Greiner BioOne). For each plate, the inventors identified the time point where the control strain MM76 (in presence of erythromycin, chloramphenicol and IPTG at the above-mentioned concentrations) reached plateau, defined as the first time point before no increase was detected in log 10 (OD595 nm) values of two consecutive time points. […]

Another assay has as its system S. aureus DSM 20231. The assay can be described thus: Adjuvant (extended non-antibiotic) combination screen. The class given is cell-based, Staphylococcus aureus. The following applies: S. aureus DSM 20231; original and extended non-antibiotic screen (FIG. 4d); 4×4 dose matrix. The method, then: as §1, §2
For the adjuvant screen, 44 non-antibiotic drugs were tested against the same recipient drugs of the main screen for S. aureus DSM 20231.
The inventors selected 44 drugs to include pharmaceuticals that can be co-administered with antibiotics in S. aureus infections or non-antibiotics with previously reported antibacterial activity against S. aureus. […] Interactions were scored and benchmarked as for the main screen (Methods).

The subject of the next assay is MDR S. aureus isolates. The note with it: Mueller-Hinton broth (MHB), 22 h; cited from earlier work.

Regarding `C[C@@H]1O[C@@H]1P(=O)(O)O` [fosfomycin], the “drug-drug interaction (synergy / antagonism, Bliss model)” value with S. aureus (two strains) was “strongly synergized with a diverse range of protein-synthesis inhibitors (lincosamides, oxazolidinones, streptomycin); also recorded: synergized with almost all classes of translation inhibitors, including macrolides, tetracyclines and spectinomycin”.
For the compound `COc1cc(C=O)ccc1O` [vanillin], in assay [1], the “inhibitory effect on growth” value is reported as “surprisingly strong inhibitory effect on the growth”.
As for nisin, the “change of MIC in CRISPRi knockdown mutants” value in assay [2] is “decrease”.
The same measure, in the same setting: for gentamicin the value was “decrease”.
Take `CC(=O)Oc1ccccc1C(=O)O` [acetylsalicylic acid]: the “interactions between non-antibiotic drug and antibiotics (synergy / antagonism, Bliss model)” value with S. aureus DSM 20231 was “synergy with cefuroxime; also recorded: antagonisms with ciprofloxacin, oxacillin and azithromycin”.
Take `O=C(O)[C@H]1/C(=C/CO)O[C@@H]2CC(=O)N21` [clavulanic acid]: in the assay with S. aureus (two strains), the “drug-drug interaction (synergy / antagonism, Bliss model)” value is listed as “a number of synergies with other drugs”.
The same measure, in the same setting: under `COc1cc(Cc2cnc(N)nc2N)cc(OC)c1OC` [trimethoprim] stands “a number of synergies with other drugs”.
On to `CN(C)C(=O)C(CCN1CCC(O)(c2ccc(Cl)cc2)CC1)(c1ccccc1)c1ccccc1` [loperamide], for which the “drug-drug interaction (synergy / antagonism, Bliss model)” value with S. aureus (two strains) was “broad antagonism with macrolides”. Further, the “rank by number of interactions with antibiotics” value in the assay on S. aureus (two strains) (the inventors' screen) is on record as “highest number of interactions with antibiotics”.
For the compound `CCN(CC)CCOc1ccc(C(=C(Cl)c2ccccc2)c2ccccc2)cc1` [clomifene], the “interactions between non-antibiotic drug and antibiotics (synergy / antagonism, Bliss model)” value in the assay on S. aureus DSM 20231 was “synergies with cell-wall acting drugs; also recorded: antagonism with streptomycin”.
On to teicoplanin, for which the “killing by single drug” value in the assay on MDR S. aureus isolates is given as “complete killing”.
